One compound from patent US7365095B2, “Chromane and chromene derivatives and uses thereof” (Wyeth, priority 2005, dated 2008) can be followed below.

Where a name gives a salt, the structure may show the parent alone.

Assay [1] concerns the target T1, human 5-hydroxytryptamine-2C (h5-HT2C) receptor (Homo sapiens, UniProt P28335).
T1 construct: expressed in transfected cells; host or cells: CHO (Chinese Hamster Ovary) cells; membrane preparation
T1 sequence (P28335 33-458): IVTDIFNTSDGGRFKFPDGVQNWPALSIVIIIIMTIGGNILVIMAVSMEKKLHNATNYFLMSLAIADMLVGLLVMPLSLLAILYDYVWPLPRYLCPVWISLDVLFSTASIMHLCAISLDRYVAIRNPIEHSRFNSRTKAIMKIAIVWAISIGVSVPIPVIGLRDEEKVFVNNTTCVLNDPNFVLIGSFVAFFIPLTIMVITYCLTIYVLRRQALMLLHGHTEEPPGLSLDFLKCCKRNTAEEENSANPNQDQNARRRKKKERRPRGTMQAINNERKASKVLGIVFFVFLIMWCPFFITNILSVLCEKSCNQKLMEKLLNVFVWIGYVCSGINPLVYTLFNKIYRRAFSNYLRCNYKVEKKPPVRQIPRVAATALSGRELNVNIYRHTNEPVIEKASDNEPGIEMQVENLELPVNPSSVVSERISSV
In words: [125I]DOI binding to membranes of CHO cells expressing h5-HT2C receptor. Particulars: read-out: 5-HT2C Binding Ki avg.

Assay [2] concerns the target T2, human 5-HT2C receptor (Homo sapiens, UniProt P28335).
T2 sequence (P28335 33-458): T1 sequence (P28335 33-458)
In words: calcium mobilization (FLIPR) in CHO cells stably expressing the human 5-HT2C receptor. The class given is cell-based.

Assay [3] in a line: obesity model, reduction of food intake in C57BL/6J-DIO mice. The class given is in vivo. As to the method:
(§1) To evaluate acute in vivo efficacy of various compounds, 7 weeks-old male C57BL/6J mice are obtained from The Jackson Laboratory (Bar Harbor, Me.) and 6 weeks-old lean Zucker fa/? rats are purchased from Charles River Laboratories (Wilmington, Mass.). Mice and rats are single housed in a temperature-controlled (25° C.) facility with a 12-h light/dark cycle. Animals are allowed normal chow diet (Rodent chow #5001, PharmaServ, Framingham, Mass.) and water ad libitum. After one week acclimation, animals are randomized to vehicle (saline) or treatment groups. Animals are fasted overnight (16 hrs) and orally dosed with vehicle or compounds. Thirty minutes after compound administration, animals are given a weighed amount of food, and food intake was recorded 30 minutes, 1 h, 2 h, 4 h, 7 h and 24 h after refeeding.
(§2) To assess in vivo efficacy of various 5-HT2C compounds on weight loss, 5 weeks-old male C57BL/6J-DIO mice were fed a high-fat high-sucrose diet (58 kcal % fat, 16.4 kcal % protein, 25.5 kcal % carbohydrate) for 11 weeks. 6 weeks-old male Zucker fa/fa rats purchased from Charles River Laboratories were also used. Mice and rats were single housed in a temperature-controlled (25° C.) facility with a 12-h light/dark cycle. Animals were allowed food and water ad libitum. After one week acclimation, animals were randomized to vehicle (saline) or treatment groups. Animals were orally dosed once daily for 14 days. Body weight, food consumption, and/or body composition (NMR) were recorded. Epidydimal adipose tissue was collected at the end of the study.

Assay [4] in a line: obesity model, reduction of food intake in Zucker rats. In kind it is in vivo. On the procedure:
as §1, §2

The Ki is the equilibrium dissociation constant of an inhibitor or competing ligand from its target. What is called Emax is the maximal effect, on the per cent scale that the assay sets. In general, EC50 refers to the concentration needed to bring the measured effect to its halfway point. Take `NC[C@H]1CCc2cccc(-c3c(Cl)cccc3Cl)c2O1` [Compound 36, {[(2R)-8-(2,6-dichlorophenyl)-3,4-dihydro-2H-chromen-2-yl]methyl}amine hydrochloride]: the Ki in assay [1] is at most 10 nM. Besides, in assay [2] (CHO, read-out: 5-HT2C Function EMax (%)), the Emax amounted to 80%. Also, the EC50 in assay [2] (calcium mobilization, read-out: 5-HT2C Function EC50) was under 50 nM. Moreover, the “% Reduction food intake (vs vehicle)” value in assay [3] (30 mpk oral, 0.5 hour) turned out to be 86 ± 11%; in assay [3] (30 mpk oral, 2 hours), 72 ± 7%; in assay [3] (30 mpk oral, 4 hours) it was 65 ± 8%; in assay [3] (50 mpk oral, 0.5 hour), 83 ± 6%; in assay [3] (50 mpk oral, 2 hours) it was 77 ± 6%; in assay [3] (50 mpk oral, 4 hours), 67 ± 9%. Also, the “% Reduction food intake (vs vehicle)” value in assay [4] (30 mpk oral, 0.5 hour) amounted to 0 ± 16%; in assay [4] (30 mpk oral, 2 hours), 0 ± 8%; in assay [4] (30 mpk oral, 4 hours), 0 ± 9%; in assay [4] (50 mpk oral, 0.5 hour), 58 ± 9%; in assay [4] (50 mpk oral, 2 hours) it was 11 ± 17%; in assay [4] (50 mpk oral, 4 hours), 0 ± 13%.
